Measurements taken from US20240197742A1, “Therapeutic Combinations of a CD19 Inhibitor and a BTK Inhibitor” (Acerta Pharma B.V., priority 2015, published 2024).
Entries after “also recorded” stand apart in the source; their conditions may differ.

Key:
[1] = In vitro metabolism in hepatocytes; type: in vitro ADME, and human; conditions: ^4C-labeled Formula (2); mouse, rat, dog, rabbit, monkey, human hepatocytes
Excerpt: (§1) No unique human metabolite was identified. Preliminary evaluations of metabolism in the plasma, bile, and urine of rats, dogs, and monkeys indicated metabolic processes of oxidation, glutathione binding, and hydrolysis.

human platelets = test: Laser injury thrombus formation in VWF HA1 mice infused with human platelets; conditions: 0.1 μM, 0.5 μM, or 1 μM
Description: Injury to the vessel wall of arterioles ([…] diameter) was performed using a pulsed nitrogen dye laser (440 nm, Photonic Instruments) applied through a 20× water-immersion Olympus objective (LUMPlanF1, 0.5 numerical aperture (NA)) of a Zeiss Axiotech vario microscope. […] The extent of thrombus formation was assessed for 2 minutes after injury and the area (μm^2) of coverage determined (Image IQ, Andor Technology).
The BTK inhibitor-treated human platelets were fluorescently labeled and infused continuously through a catheter inserted into the femoral artery.

BTK = target: T1, BTK (Mus musculus, UniProt P35991); test: Molecular probe assay of irreversible BTK occupancy in MDSCs; type: in vivo; conditions: tumor bearing PDA mice, 15 mg/kg BID; Day 8 at 4 hours post dose (N=5)
T1 construct: MDSCs were purified from tumor bearing PDA mice; from tissue; host or cells: granulocytic and monocytic MDSCs from tumor-bearing PDA mice dosed in vivo

regulatory T cell (Treg) = test: Treg development from enriched CD4+ T cells; type: cell-based; conditions: anti-TCRβ plus anti-CD28, skewing cytokines, 4 days
Description: (§2) Enriched CD4^+ T cells are plated on 24-well culture dishes that have been precoated 2 hr with 250 μL anti-TCRβ (0.5 μg/mL) plus anti-CD28 (5 μg/mL) at 37° C. in PBS. The cells are then supplemented with media containing BTK inhibitors along with the skewing cytokines as indicated in the following. The Th17 and Treg cultures are grown for 4 days before analysis. The cells are maintained for an additional 3 days with skewing cytokines (Th17; 20 ng/mL IL-6, 0.5 ng/mL TGF-β, 5 μg/mL IL-4, 5 μg/mL IFN-γ and Treg; 0.5 ng/mL TGF-β, 5 μg/mL IL-4, 5 μg/mL IFN-γ) and are supplemented with IL2 as a growth factor.

[2] = Glutathione binding and depletion in vitro; type: in vitro ADME
Excerpt: as §1

[3] = tested on: BCR activation markers CD69 and CD86; test: In vivo potency: expression of BCR activation markers after IgM stimulation; conditions: mice gavaged, 3 hours post-dose, BCR stimulated with IgM; versus Formula (10)
Description: Mice were gavaged at increasing drug concentration and sacrificed at one time point (3 hours post-dose). BCR is stimulated with IgM and the expression of activation markers CD69 and CD86 are monitored by flow cytometry to determine EC50 values.
CD86 and CD69 are cell surface proteins that are BCR activation markers. […] BCR was stimulated with IgM and the expression of activation marker CD69 and CD86 are monitored by flow cytometry to determine EC50 values.

CXCL12 and CCL2 = test: Plasma chemokines in CLL patients; type: in vivo, human; conditions: plasma of treated CLL patients
Th17 cells = test: Th17 development from enriched CD4+ T cells; type: cell-based; conditions: anti-TCRβ plus anti-CD28, skewing cytokines, 4 days
Description: as §2

B cell receptor = test: Whole blood potency: CD69 on CD19+ B cells after anti-human IgD; type: cell-based; conditions: blood from four healthy donors, 2 hours with compound, anti-human IgD 10 μg/mL 18 hours, read-out: EC50, CD69 on gated CD19+ B cells in whole blood
GPVI = GPVI platelet aggregation (convulxin); type: cell-based, human
Description: GPVI platelet aggregation was measured for Formula (2) and Formula (10) (ibrutinib). Blood was obtained from untreated humans, and platelets were purified from […] by centrifugation. Cells were resuspended to a final concentration of 350,000/μL in buffer containing 145 mmol/L NaCl, 10 mmol/L HEPES, 0.5 mmol/L Na2HPO4, 5 mmol/L KCl, 2 mmol/L MgCl2, 1 mmol/L CaCl2, and 0.1% glucose, at pH 7.4. Stock solutions of Convulxin (CVX) GPVI were prepared on the day of experimentation and added to platelet suspensions 5 minutes (37° C., 1200 rpm) before the induction of aggregation. Aggregation was assessed with a Chronolog Lumi-Aggregometer (model 540 VS; Chronolog, Havertown, PA) and permitted to proceed for 6 minutes after the addition of agonist. The results are reported as maximum percent change in light transmittance from baseline with platelet buffer used as a reference.
In FIG. 72, the results of CVX-induced (250 ng/mL) human platelet aggregation results before and 15 minutes after administration of the BTK inhibitors to 6 healthy individuals are shown.

NK cells = test: Whole blood NK cell degranulation with obinutuzumab-opsonised MEC-1 cells; type: cell-based, human; conditions: 1 hour pretreatment (10, 1, 0.1 μM), MEC-1 opsonised with obinutuzumab 1 μg/mL, 4 hours, n=3
Description: Degranulation in whole blood was performed as follows. […] Exponentially growing cells were used. On the day of the experiment, 8 mL of blood was drawn from a normal volunteer into a test tube containing desirudin to obtain a final concentration of 50 μg/mL. A white blood cell (WBC) count of whole blood was performed. […] The ibrutinib control and two blinded BTK inhibitors were diluted in X-VIVO 15 serum-free hematopoietic cell medium (Lonza Group, Ltd.) to concentrations of 200 μM, 20 μM and 2 μM. 170 μL aliquots of unmanipulated whole blood were incubated with 10 μL BTK inhibitors or X-VIVO 15 medium for one hour into a plate. […] The samples were placed in a 5% CO2 incubator for 4 hours at 37° C.
After 4 hours, the samples were mixed gently and 50 μL aliquots were removed from each well and placed in fluorescence-activated cell sorting (FACS) test tubes. A 20 μL aliquot of anti-CD56-APC antibody and anti-CD107a-PE antibody was added. The samples were incubated for 20 minutes at room temperature in the dark. An aliquot of 2 mL of FACS lysing solution (BD Biosceinces) was added. The samples were again incubated for 5 minutes, and then centrifuged at 2000 rpm for 5 minutes. Supernatant was discarded and the cell pellet was resuspended in 500 μL of PBS. The samples were analyzed on the flow cytometer for CD107a^+ NK cells (CD56^+).

[4] = tested on: MDSC (monocytic) and NK cells; test: Flow cytometry of peripheral blood cell subsets in CLL patients; type: in vivo, human; conditions: patients with decreasing ALC %, doses including 100 mg BID, 200 mg QD, 400 mg QD
Description: PBMCs were stained with monoclonal antibodies conjugated to fluorescent tags (flourochromes) to identify cell subsets via flow cytometry. Non-viable cells were excluded from the analysis using the dye 7-aminoactinomycin D (7-AAD). To produce the metric of percent change, the following steps were taken. First, each cell subset was defined by hierarchical flow cytometry gating. Then, the change in frequency (between day 1 and day 28) was calculated for each cell subset. MDSC subsets were measured as a % of all myeloid cells. T cell subsets were measured as a % of all CD3^+ cells, and NK cells were measured as a % of all live CD45^+ cells. […] A cycle is 28 days. […] This may include patients who had quickly resolving lymphocytosis and those with no initial lymphocytosis. […] This may include patients who had quickly resolving lymphocytosis and those having no initial lymphocytosis. The effects in FIG. 52 to FIG. 55 are observed in multiple cohorts, at doses including 100 mg BID, 200 mg QD, and 400 mg QD. In FIG. 56 and FIG. 57, the effects on NK cells and MDSC cells are compared to a number of other markers versus % change in ALC at C1D28 and C2D28. These other markers include CD4+ T cells, CD8+ T cells, CD4+/CD8+ T cell ratio, NK-T cells, PD-1+CD4+ T cells, and PD-1+CD8+ T cells. The effects on NK cells and MDSC cells are observed to be much more pronounced than on any of these other markers.

T1 sequence (P35991 whole entry): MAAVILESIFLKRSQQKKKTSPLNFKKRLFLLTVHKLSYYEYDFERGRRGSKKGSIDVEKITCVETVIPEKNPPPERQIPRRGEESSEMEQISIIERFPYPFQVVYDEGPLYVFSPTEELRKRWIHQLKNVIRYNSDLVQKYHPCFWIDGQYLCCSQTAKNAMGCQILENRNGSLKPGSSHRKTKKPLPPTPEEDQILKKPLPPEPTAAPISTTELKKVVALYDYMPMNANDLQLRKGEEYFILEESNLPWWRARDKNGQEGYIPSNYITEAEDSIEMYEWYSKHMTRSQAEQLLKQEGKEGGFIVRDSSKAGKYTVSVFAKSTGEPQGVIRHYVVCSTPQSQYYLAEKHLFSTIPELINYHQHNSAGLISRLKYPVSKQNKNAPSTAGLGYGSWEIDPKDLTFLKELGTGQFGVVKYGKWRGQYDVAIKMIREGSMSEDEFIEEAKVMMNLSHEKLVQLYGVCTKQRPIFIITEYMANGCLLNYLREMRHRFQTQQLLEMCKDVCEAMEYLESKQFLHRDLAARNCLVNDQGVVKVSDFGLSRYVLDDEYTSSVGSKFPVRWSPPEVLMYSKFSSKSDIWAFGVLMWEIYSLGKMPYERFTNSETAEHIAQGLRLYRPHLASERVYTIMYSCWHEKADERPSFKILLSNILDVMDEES

CC#CC(=O)N1CCC[C@H]1c1nc(-c2ccc(C(=O)Nc3ccccn3)cc2)c2c(N)nccn12 [Formula (2), (S)-4-(8-amino-3-(1-(but-2-ynoyl)pyrrolidin-2-yl)imidazo[1,5-α]pyrazin-1-yl)-N-(pyridin-2-yl)benzamide]
metabolites in hepatocytes [1]: two mono-oxidized metabolites and a glutathione conjugate
effect on human platelet-mediated thrombus formation (human platelets): does not interfere with thrombus formation; also recorded: no significant effect
BTK occupancy in granulocytic and monocytic MDSC compartments (BTK): Complete
effect on Treg development (regulatory T cell (Treg)): no adverse effect
glutathione binding and depletion [2]: binds to glutathione but does not deplete glutathione
in vivo potency at inhibiting expression of activation markers CD69 and CD86 [3]: more potent
CCL2 levels (CXCL12 and CCL2): significant decrease
CXCL12 levels (CXCL12 and CCL2): significant decrease
effect on Th17 cells / Th17 development (Th17 cells): no adverse effect
EC50 (B cell receptor): 8.2 nM
effect on GPVI platelet aggregation (GPVI; CVX-induced human platelet aggregation): does not
IC50 (GPVI; purified human platelets, convulxin (CVX)): 1150 nM
reduction of obinutuzumab-stimulated NK cell degranulation (CD56+/CD107a+ NK cells) (NK cells): minimal effect
% change in MDSC (monocytic) level over 28 days versus % ALC change ([4]; C1D28 and C2D28): increasing MDSC (monocytic) %
% change in NK cell level over 28 days versus % ALC change ([4]; C1D28 or C2D28): increasing NK cell %
